From patent US10752593B2, “Compounds for use as therapeutically active substances in the treatment of retinal diseases” (ENDOGENA THERAPEUTICS, INC., priority 2018, dated 2020)

System: retinal precursor cells
Experiment: Sphere passaging and high-throughput drug screening: proliferation of retinal precursor cells within one week
Type: cell-based, mammalian
Conditions: for increase of cell proliferation within one week: increase over control, retinal precursor cells; for Cell proliferation within one week [%]: retinal precursor cells grown one week with compound in 0.1% DMSO, control without compound = 100
Procedure: Kynurenic Acid (0.2 mg/mL), trypsin (1.33 mg/mL), and hyaluronidase (0.67 mg/mL) were weighed out and dissolved in high magnesium/low calcium artificial cerebral spinal fluid (aCSF) at 37° C. Fibroblast growth factor 2 (FGF2; 10 ng/mL) and heparin (2 μg/mL) were added to 100 mL of serum-free media (SFM). Ovomucoid trypsin inhibitor (1 mg/mL) was dissolved in warm SFM and sterile filtered ([…]).
A dissecting microscope, cold light source, and sterile surgical instruments were set up inside of a sterile biological safety cabinet (BSC). Mammalian eyes were enucleated and placed in a petri dish containing cold, sterile aCSF. Under the dissecting microscope, hair, connective tissue, and the dorsal and ventral oblique muscles were cleared from the scleral/corneal border with two sets of forceps. Next, curved or angled micro-dissecting scissors were used to cleave any remaining extraocular muscle tissue, the optic nerve, and cut the eyeball into symmetrical halves; beginning and finishing the cut from the hole left by the optic nerve. Using two sets of forceps to grasp the cornea, the two eye halves were peeled apart. The lens, optic nerve, and vitreous were separated from the eye shells and the eye shells were transferred into a new petri dish (also containing cold, sterile aCSF). To isolate the ciliary epithelium (CE), eye shells were oriented with the cornea on the right and retinal pigmented epithelium (RPE) on the left. A pair of straight forceps were used to pin down the eye shell on the RPE side while a scalpel blade was inserted between the CE and the iris, using pressure to slice the iris/cornea side off from the rest of the shell. Next, the scalpel was run along the border between the CE and the RPE to obtain the CE isolated as a thin strip of tissue. The CE strips were then transferred to a 35 mm dish containing 2 mL of dispase solution (Sigma; T1005) and incubated for 10 minutes at 37° C. Next, the strips were transferred from dispase into a 35 mm dish containing 2 mL of sterile filtered kynurenic acid, trypsin and hyaluronidase solution and incubated at 37° C. for 10 minutes. After incubation, the dish was returned to the dissecting scope, and the CE strips were pinned down with straight, non-serrated forceps, while non-serrated curved forceps were used to scrape the CE off from the underlying sclera. The bare scleral strips were then discarded, such that only the CE cells remained in the enzyme solution. Using a fire-polished, cotton-plugged glass pipette, the cells and enzyme solution were transferred to a 15 mL tube and triturated approximately 45 times to break apart the tissue. The 15 mL tube/cell suspension was centrifuged for 5 minutes at 1500 rpm. The supernatant was gently aspirated from the resulting pellet using a fire-polished, cotton-plugged glass pipette and 2 mL of trypsin inhibitor solution was added to the pellet. Using a small borehole, fire-polished, cotton-plugged glass pipette, the sample was triturated approximately 45 times until it was a single-cell suspension. The 15 mL tube/cell suspension was centrifuged for 5 minutes at 1500 rpm. The supernatant was gently aspirated from the resulting pellet and 1-2 mL of SFM with FGF2 and heparin (plating media) was added. The cells and media were mixed to ensure a uniform cell suspension and a 10 uL sample was taken and cell density was determined. The cells were then seeded and cultured at 10c/μL in culture-treated plates or flasks. After one week, roughly 1 in 500 cells proliferated to form free-floating, clonal spheres greater than 80 μm in diameter.
Human-derived spheres were passaged using the kynurenic acid, trypsin, hyaluronidase enzyme solution with the addition of collagenase I (0.5 mg/mL), collagenase II (0.5 mg/mL) and elastase (0.1 mg/mL). Mouse-derived spheres were passaged using hyaluronidase (0.67 mg/mL), collagenase I (0.5 mg/mL), and collagenase II (0.5 mg/mL) dissolved in Accustase solution (Sigma; SCR005). […]

[1] = results table after the methods

SMILES | increase of cell proliferation within one week [%] | Cell proliferation within one week [%] [1] [%] | Cell proliferation within one week [%] (concentration not given)
COc1cc(NC(=O)Cc2ccccc2Cl)ccc1-c1ccncc1 [Compound E0027, 2-(2-chlorophenyl)-N-(3-methoxy-4-(pyridin-4-yl)phenyl)acetamide] | 48 | 148 | 
COc1cccc(CC(=O)Nc2ccc(-c3cnco3)c(Cl)c2)c1 [Compound E0146, N-(3-chloro-4-(oxazol-5-yl)phenyl)-2-(3-methoxyphenyl)acetamide] | 103 | 203 | 203
O=C(Cc1ccccc1C(F)(F)F)Nc1ccc(-c2cnco2)c(Cl)c1 [Compound E0147, N-(3-chloro-4-(oxazol-5-yl)phenyl)-2-(2-(trifluoromethyl)phenyl)acetamide] | 42 | 142 | 142
O=C(Cc1cccc(Br)c1)Nc1ccc(-c2cnco2)c(Cl)c1 [Compound E0148, 2-(3-bromophenyl)-N-(3-chloro-4-(oxazol-5-yl)phenyl)acetamide] | 43 | 143 | 143
O=C(Cc1ccc(F)cc1F)Nc1ccc(-c2cnco2)c(Cl)c1 [Compound E0149, N-(3-chloro-4-(oxazol-5-yl)phenyl)-2-(2,4-difluorophenyl)acetamide] | 57 | 157 | 157
O=C(Cc1cc(F)ccc1Cl)Nc1ccc(-c2cnco2)c(Cl)c1 [Compound E1017, N-(3-chloro-4-(oxazol-5-yl)phenyl)-2-(2-chloro-5-fluorophenyl)acetamide] |  | 121 | 121
O=C(Cc1cccc(C(F)(F)F)c1)Nc1ccc(-c2cnco2)c(Cl)c1 [Compound E1018, N-(3-chloro-4-(oxazol-5-yl)phenyl)-2-(3-(trifluoromethyl)phenyl)acetamide] |  | 134 | 134
O=C(Cc1ccc(Cl)cc1)Nc1ccc(-c2cnco2)c(Cl)c1 [Compound E1019, N-(3-chloro-4-(oxazol-5-yl)phenyl)-2-(4-chlorophenyl)acetamide] |  | 133 | 133
O=C(Cc1ccccc1OC(F)F)Nc1ccc(-c2cnco2)c(Cl)c1 [Compound E1020, N-(3-chloro-4-(oxazol-5-yl)phenyl)-2-(2-(difluoromethoxy)phenyl)acetamide] |  | 135 | 135
O=C(Cc1ccccc1)Nc1ccc(-c2cnco2)c(Cl)c1 [Compound E1021, N-(3-chloro-4-(oxazol-5-yl)phenyl)-2-phenylacetamide] | 49 | 149 | 149
O=C(Cc1ccccc1Cl)Nc1ccc(-c2cnco2)c(Cl)c1 [Compound E1022, N-(3-chloro-4-(oxazol-5-yl)phenyl)-2-(2-chlorophenyl)acetamide] | 58 | 158 | 158
COc1ccccc1CC(=O)Nc1ccc(-c2cnco2)c(Cl)c1 [Compound E1024, N-(3-chloro-4-(oxazol-5-yl)phenyl)-2-(2-methoxyphenyl)acetamide] |  | 128 | 128
COc1ccccc1CC(=O)Nc1ccc(-c2cnco2)c(F)c1 [Compound E1025, N-(3-fluoro-4-(oxazol-5-yl)phenyl)-2-(2-methoxyphenyl)acetamide] |  | 106 | 106
O=C(Cc1cccc(OC(F)F)c1)Nc1ccc(-c2cnco2)c(Cl)c1 [Compound E1026, N-(3-chloro-4-(oxazol-5-yl)phenyl)-2-(3-(difluoromethoxy)phenyl)acetamide] |  | 122 | 122
O=C(Cc1cccc(OC(F)F)c1)Nc1ccc(-c2cnco2)c(F)c1 [Compound E1027, 2-(3-(difluoromethoxy)phenyl)-N-(3-fluoro-4-(oxazol-5-yl)phenyl)acetamide] |  | 120 | 120
O=C(Cc1ccccc1OC(F)F)Nc1ccc(-c2cnco2)c(F)c1 [Compound E1028, 2-(2-(difluoromethoxy)phenyl)-N-(3-fluoro-4-(oxazol-5-yl)phenyl)acetamide] |  | 119 | 119
O=C(Cc1cc(F)ccc1Cl)Nc1ccc(-c2cnco2)c(F)c1 [Compound E1030, 2-(2-chloro-5-fluorophenyl)-N-(3-fluoro-4-(oxazol-5-yl)phenyl)acetamide] |  | 133 | 133
O=C(Cc1ccccc1)Nc1ccc(-c2cnco2)c(F)c1 [Compound E1031, N-(3-fluoro-4-(oxazol-5-yl)phenyl)-2-phenylacetamide] |  | 123 | 123
O=C(Cc1ccccc1Cl)Nc1ccc(-c2cnco2)c(F)c1 [Compound E1032, 2-(2-chlorophenyl)-N-(3-fluoro-4-(oxazol-5-yl)phenyl)acetamide] |  | 137 | 137
O=C(Cc1ccc(Cl)cc1)Nc1ccc(-c2cnco2)c(F)c1 [Compound E1039, 2-(4-chlorophenyl)-N-(3-fluoro-4-(oxazol-5-yl)phenyl)acetamide] |  | 107 | 107
COc1cccc(CC(=O)Nc2ccc(-c3cnco3)c(F)c2)c1 [Compound E1042, N-(3-fluoro-4-(oxazol-5-yl)phenyl)-2-(3-methoxyphenyl)acetamide] |  | 127 | 127
O=C(Cc1ccc(F)cc1F)Nc1ccc(-c2cnco2)c(F)c1 [Compound E1045, 2-(2,4-difluorophenyl)-N-(3-fluoro-4-(oxazol-5-yl)phenyl)acetamide] |  | 140 | 140
O=C(Cc1cccc(C(F)(F)F)c1)Nc1ccc(-c2cnco2)c(F)c1 [Compound E1048, N-(3-fluoro-4-(oxazol-5-yl)phenyl)-2-(3-(trifluoromethyl)phenyl)acetamide] |  | 105 | 105
O=C(Cc1ccccc1C(F)(F)F)Nc1ccc(-c2cnco2)c(F)c1 [Compound E1051, N-(3-fluoro-4-(oxazol-5-yl)phenyl)-2-(2-(trifluoromethyl)phenyl)acetamide] |  | 118 | 118
O=C(Cc1ccccc1Cl)Nc1ccc(-c2ccncc2)cc1 [Compound E1060, 2-(2-chlorophenyl)-N-(4-(pyridin-4-yl)phenyl)acetamide] | 44 | 144 | 
COc1cc(NC(=O)Cc2cc(F)ccc2Cl)ccc1-c1ccncc1 [Compound E1062, 2-(2-chloro-5-fluorophenyl)-N-(3-methoxy-4-(pyridin-4-yl)phenyl)acetamide] |  | 134 | 
COc1cc(NC(=O)Cc2ccccc2)ccc1-c1ccncc1 [Compound E1063, N-(3-methoxy-4-(pyridin-4-yl)phenyl)-2-phenylacetamide] |  | 130 | 
COc1cc(NC(=O)Cc2cccc(OC(F)F)c2)ccc1-c1ccncc1 [Compound E1066, 2-(3-(difluoromethoxy)phenyl)-N-(3-methoxy-4-(pyridin-4-yl)phenyl)acetamide] |  | 108 | 
